# Columns and labels:
# S. maltophilia isolates [1] = test: Effect of sub-MIC concentrations on growth curves; format: cell-based, Stenotrophomonas maltophilia; settings: sub-MIC concentrations (4 and 8 mg/ml), all 4 tested S. maltophilia isolates
# BCC isolates [2] = test: Time-kill assay; format: cell-based, Burkholderia cepacia complex; settings: NAC 32 mg/ml
# BCC biofilm = test: Inhibition of biofilm formation, MBEC High-Throughput Assay, viable cell count; format: cell-based, Burkholderia cepacia complex; settings: NAC 4, 8 and 16 mg/ml, two BCC isolates
# [3] = tested on: S. maltophilia clinical isolates; test: MIC by broth microdilution; format: cell-based; settings: Stenotrophomonas maltophilia
# S. maltophilia isolates [4] = test: Time-kill assay; format: cell-based, Stenotrophomonas maltophilia; settings: NAC 32 mg/ml
# BCC isolates [5] = test: Effect of sub-MIC concentrations on growth curves; format: cell-based, Burkholderia cepacia complex; settings: sub-MIC concentrations (4 and 8 mg/ml), all 4 tested BCC isolates
# [6] = tested on: BCC (B. cepacia, B. cenocepacia, B. multivorans, B. metallica, B. seminalis, B. stabilis) clinical isolates; test: organism not typed; format: cell-based, Burkholderia cepacia complex
# S. maltophilia biofilm = test: Inhibition of biofilm formation, MBEC High-Throughput Assay, viable cell count; format: cell-based, Stenotrophomonas maltophilia; settings: NAC 4, 8 and 16 mg/ml, all S. maltophilia isolates
smiles,measurement,setting,value
"CC(=O)N[C@@H](CS)C(=O)O [NAC, N-acetylcysteine]",Effect on growth,S. maltophilia isolates [1],slowed down the growth
same,Reduction of bacterial inoculum (bactericidal),BCC isolates [2]; one BCC isolate,more than 3 logs
same,Reduction of bacterial inoculum,BCC isolates [2]; remaining BCC isolates,< 1 log CFU/ml
same,Inhibition of biofilm formation,BCC biofilm,inhibit biofilm formation in a dose-dependent fashion
same,MIC,[3]; nine of 16 S. maltophilia clinical isolates,16 mg/mL
same,MIC,[3]; remaining S. maltophilia isolates (of 16),32 mg/mL
same,Reduction of bacterial inoculum (bactericidal),S. maltophilia isolates [4]; one S. maltophilia isolate,more than 3 logs
same,Reduction of bacterial inoculum,S. maltophilia isolates [4]; remaining S. maltophilia isolates,< 1 log CFU/ml
same,Effect on growth,BCC isolates [5],slowed down the growth
same,MIC,[6]; remaining BCC isolates (of 16),32 mg/mL
same,MIC,[6]; seven of 16 BCC clinical isolates,16 mg/mL
same,Inhibition of biofilm formation,S. maltophilia biofilm,inhibit biofilm formation in a dose-dependent fashion

# Reference: US11918552B2, “N-acetylcysteine for use as antibacterial agent” (priority 2016, dated 2024)
